Source: US9863955B2, “AMPK activator screening method, and AMPK activator” (KYORIN PHARMACEUTICAL CO., LTD., priority 2012, dated 2018)

Assays:
[1] = target: T1, interaction between PHB1 and AMPK (Homo sapiens, UniProt P35232); assay: GST pull down assay of GST-PHB1 protein and AMPK in the presence of compound A; assay type: binding; conditions: compound A final concentration 10 μM, 3 hours at 4° C., Western blotting (FIG. 7)
T1 construct: purchased Abnova Corp. (GST-PHB1); Calbiochem (AMPK)
T1 sequence (P35232 1-272): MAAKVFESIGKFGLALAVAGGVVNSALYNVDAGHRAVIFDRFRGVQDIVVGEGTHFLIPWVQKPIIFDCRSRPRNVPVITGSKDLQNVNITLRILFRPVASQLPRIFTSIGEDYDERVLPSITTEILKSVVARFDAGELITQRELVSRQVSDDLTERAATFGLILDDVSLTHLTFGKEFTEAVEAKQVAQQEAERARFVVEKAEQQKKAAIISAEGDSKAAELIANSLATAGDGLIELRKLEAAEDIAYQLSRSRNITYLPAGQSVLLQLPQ
Method: Specifically, Glutathione Sepharose 4 Fast Flow carrier (GE Healthcare) was bound to each of commercially available GST protein, a GST fusion PHB1 protein (hereinafter also referred to as GST-PHB1 protein) (Abnova Corp.) and a GST fusion PHB2 protein (hereinafter also referred to as the GST-PHB2 protein) (Abnova Corp.) to obtain GST carrier-protein complexes. Each of the GST carrier-protein complexes and AMPK (Calbiochem) were incubated in a NET buffer (0.5% NP-40, 50 mM Tris-HCl pH 7.5, 50 mM sodium chloride, and 5 mM EDTA) for 3 hours at 4° C. for binding. After washing the resultant with a NET buffer, a sample buffer (50 mM Tris-HCl pH 6.8, 2% SDS, 10% glycerin, 1% β-mercaptoethanol, 12.5 mM EDTA, and 0.02% bromophenol blue) was added thereto to prepare a sample. The thus obtained sample was separated by SDS-PAGE, the resultant was transferred to a PVDF membrane and subjected to Western blotting using anti-AMPKα and anti-GST antibodies, so as to detect whether or not AMPK was bound to GST protein, GST-PHB1 protein or GST-PHB2 protein bound to Gluthathione Sepharose to be pulled down.
GST-PHB1 protein (500 ng) was bound to Glutathione Sepharose 4 Fast Flow (10 μL) to obtain a GST carrier-protein complex. […]

PHB2 = assay: Western blotting of HepG2 cells cultured with compound A: PHB2; assay type: cell-based, human; conditions: various final concentrations, 3 hours culture (FIG. 8)
Method: (§1) Compound A was added to a HepG2 cell culture system to various final concentrations, and after culturing the resultant for 3 hours, the cells were lysed in a lysis buffer to obtain a cell extract. The thus obtained cell extract was used for performing SDS-PAGE so as to separate proteins contained in the extract in accordance with their sizes, and the resultant was transferred to a PVDF membrane to detect PHB1, PHB2, AMPKα and phosphorylated AMPKα by Western blotting.

PHB1 = assay: Western blotting of HepG2 cells cultured with compound A: PHB1; assay type: cell-based, human; conditions: various final concentrations, 3 hours culture (FIG. 8)
Method: as §1

AMPKα = assay: Western blotting of HepG2 cells cultured with compound A: AMPKα; assay type: cell-based, human; conditions: various final concentrations, 3 hours culture (FIG. 8)
Method: as §1

ACC = assay: Western blotting of HepG2 cells cultured with compound A: ACC; assay type: cell-based, human; conditions: various final concentrations, 3 hours culture (FIG. 8)
human PHB1 = assay: Real-time PCR of HepG2 cells transfected with siRNA: PHB1; assay type: cell-based; conditions: 72 hours after transfection (FIG. 1)
Source text: (§2) Human hepatoma cell line HepG2 cells were transfected with siRNA (Stealth RNAi, Invitrogen) against human PHB1 or human PHB2 using Lipofectamine RNAiMAX (Invitrogen).
(§3) Seventy-two hours after the transfection, RNA was extracted from siRNA transfected cells using RNeasy Mini Kit (Qiagen). The thus obtained RNA was reverse transcribed into a cDNA using High Capacity cDNA Reverse Transcription Kit (Applied Biosystems). The resultant cDNA was subjected to real-time PCR by TaqMan Gene Expression Assays (Applied Biosystems, PHB1: Hs_00855044_gl, PHB2: Hs_00200720_ml) using 7500 Fast Real-Time PCR system (Applied Biosystems), and thus, the influence of the knockdown of PHB1 or PHB2 on the amount of gene expression was detected.

human PHB2 = assay: Real-time PCR of HepG2 cells transfected with siRNA: PHB2; assay type: cell-based; conditions: 72 hours after transfection (FIG. 1)
Source text: as §2, §3

Compound: CCCCN1C(=O)CN(Cc2ccc(OC)c(C(=O)NCc3ccc(Oc4ccc(F)cc4)cc3)c2)C1=O [compound A, 5(2,4-dioxo-3-butylimidazolidin-1-yl)methyl-2-methoxy-N-[4-(4-fluorophenoxy)phenylmethyl]benzamide]
- AMPKα pulled down by GST-PHB1 protein [1]: remarkably decreased
- amount of PHB2 (PHB2): does not remarkably affect
- amount of PHB1 (PHB1): does not remarkably affect
- amount of AMPKα (AMPKα): does not remarkably affect
- level of phosphorylated AMPKα (AMPKα): increased by compound A in a concentration-dependent manner
- amount of ACC (ACC): does not remarkably affect
- level of phosphorylated ACC (ACC): increased by compound A in a concentration-dependent manner

Compound: siPHB1: siRNA (Stealth RNAi, Invitrogen) against human PHB1, SEQ ID NO: 1 and 2 (chain 1 UUGGCAAUCAGCUCAGCUGCCUUGG; chain 2 CCAAGGCAGCUGAGCUGAUUGCCAA; Stealth RNAi (Invitrogen), modifications not given here)
- amount of transcription of PHB1 (human PHB1): specifically depressed

Compound: siPHB2: siRNA (Stealth RNAi, Invitrogen) against human PHB2, SEQ ID NO: 3 and 4 (chain 1 UACGAUUCUGUGAUGUGGCGAUCGU; chain 2 ACGAUCGCCACAUCACAGAAUCGUA; Stealth RNAi (Invitrogen), modifications not given here)
- amount of transcription of PHB2 (human PHB2): specifically depressed
